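Method: 48-hour compound exposure of cells in 96-well plates, five concentrations, linear interpolation of endpoints. At the GI50, growth is halved.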 Activity calls are given as the source filed them. No stated cut-off is given here; in the data, active = GI50 up to about 1.1 µM and inactive = higher.
Columns and labels:
Assay in all cases: DTP human tumour cell line panel, 48 h
786-0 = test system: 786-0
HCC 2998 = test system: HCC 2998
HL-60 = test system: HL-60
HOP-62 = test system: HOP-62
IGROV-1 = test system: IGROV-1
KM12 = test system: KM12
LOX IMVI = test system: LOX IMVI
Malme-3M = test system: Malme-3M
NCI-H460 = test system: NCI-H460
OVCAR-4 = test system: OVCAR-4
RPMI-8226 = test system: RPMI-8226
SF-295 = test system: SF-295
TK-10 = test system: TK-10
U-251 = test system: U-251
UACC-257 = test system: UACC-257
UO-31 = test system: UO-31
HCT-116 = test system: HCT-116
RXF 393 = test system: RXF 393
SN12C = test system: SN12C

Measured: GI50

CCOC(=O)N1CCC2(CC1)C[C@](C)(C(C)=O)C(C)O2 (stereo partly drawn)
inactive: 786-0 > 100 µM | HCC 2998 > 100 µM | HL-60 2.81 µM | HOP-62 > 100 µM | IGROV-1 > 100 µM | KM12 > 100 µM | LOX IMVI > 100 µM | Malme-3M > 100 µM | NCI-H460 > 100 µM | OVCAR-4 > 100 µM | RPMI-8226 > 100 µM | SF-295 > 100 µM | TK-10 > 100 µM | U-251 > 100 µM | UACC-257 > 100 µM | UO-31 > 100 µM

COc1ccc(C2=C(Cl)c3cc(OC)c(OC)cc3C2Cl)cc1OC (stereo not drawn)
inactive: 786-0 19.1 µM | HCT-116 15.2 µM | HL-60 13.7 µM | HOP-62 16.5 µM | IGROV-1 20.9 µM | LOX IMVI 14.9 µM | Malme-3M 19.6 µM | NCI-H460 16.5 µM | OVCAR-4 18.2 µM | RPMI-8226 10.2 µM | RXF 393 14.2 µM | SF-295 18.3 µM | SN12C 17.9 µM | TK-10 19.4 µM | U-251 15.4 µM | UACC-257 17.8 µM | UO-31 16.3 µM

CC(=O)N1c2ccccc2C2=CC3C4C(=O)N(c5ccccc5)C(=O)C4C21C1C(=O)N(c2ccccc2)C(=O)C31 (stereo not drawn)
inactive: 786-0 37.2 µM | HCC 2998 20.7 µM | HCT-116 3.83 µM | HL-60 20.7 µM | IGROV-1 75.7 µM | KM12 35.6 µM | LOX IMVI 43.9 µM | Malme-3M 99.5 µM | NCI-H460 16.8 µM | SF-295 7.06 µM | SN12C 42.7 µM | TK-10 > 100 µM | U-251 13.9 µM | UACC-257 13.8 µM | UO-31 48.3 µM

COc1cc(CNc2nc3ccc(C(F)(F)F)cc3nc2-c2ccccc2)cc(OC)c1OC
inactive: 786-0 28.3 µM | HCC 2998 38.8 µM | HCT-116 15.4 µM | HL-60 5.55 µM | HOP-62 76.6 µM | IGROV-1 67.3 µM | KM12 24.6 µM | LOX IMVI 32.1 µM | Malme-3M 29.6 µM | NCI-H460 34.1 µM | OVCAR-4 19.4 µM | RPMI-8226 6.11 µM | SF-295 34.7 µM | SN12C 29.6 µM | TK-10 27.1 µM | U-251 44.5 µM | UACC-257 34.9 µM | UO-31 5.93 µM

NC(=O)CN(CC(N)=O)C(N)=O
inactive: 786-0 > 100 µM | HCT-116 > 100 µM | HL-60 > 100 µM | IGROV-1 > 100 µM | KM12 > 100 µM | LOX IMVI > 100 µM | Malme-3M > 100 µM | NCI-H460 > 100 µM | OVCAR-4 > 100 µM | RPMI-8226 > 100 µM | RXF 393 > 100 µM | SF-295 > 100 µM | TK-10 > 100 µM | U-251 > 100 µM | UACC-257 > 100 µM | UO-31 > 100 µM

COc1cc(Br)c(C2OCCCO2)cc1OCc1ccccc1
inactive: 786-0 > 100 µM | HCT-116 39.7 µM | HL-60 38.5 µM | HOP-62 > 100 µM | IGROV-1 > 100 µM | KM12 > 100 µM | LOX IMVI 78.3 µM | NCI-H460 55.7 µM | OVCAR-4 69.5 µM | RPMI-8226 52.8 µM | RXF 393 64 µM | SF-295 > 100 µM | SN12C > 100 µM | TK-10 > 100 µM | U-251 > 100 µM | UO-31 28.2 µM

CNC(=O)N(CCCCC(NC(C)=O)C(=O)NCc1ccccc1)Cc1ccccc1 (stereo not drawn)
inactive: 786-0 > 100 µM | HCC 2998 > 100 µM | HCT-116 > 100 µM | HOP-62 > 100 µM | IGROV-1 > 100 µM | KM12 > 100 µM | LOX IMVI > 100 µM | Malme-3M > 100 µM | NCI-H460 > 100 µM | OVCAR-4 > 100 µM | RPMI-8226 > 100 µM | RXF 393 > 100 µM | SF-295 > 100 µM | SN12C > 100 µM | TK-10 > 100 µM | U-251 > 100 µM | UACC-257 > 100 µM | UO-31 > 100 µM

COc1ccc(C(C#N)NNc2nc(C)cc(O)n2)cc1OC (stereo not drawn)
inactive: 786-0 > 100 µM | HCT-116 > 100 µM | HL-60 > 100 µM | HOP-62 > 100 µM | IGROV-1 > 100 µM | KM12 > 100 µM | LOX IMVI > 100 µM | Malme-3M > 100 µM | NCI-H460 > 100 µM | OVCAR-4 > 100 µM | RPMI-8226 > 100 µM | RXF 393 > 100 µM | SF-295 > 100 µM | SN12C > 100 µM | TK-10 > 100 µM | U-251 > 100 µM | UACC-257 > 100 µM | UO-31 > 100 µM

CSC1(CC(=O)N2CCCCC2)C(=O)Nc2ccccc21 (stereo not drawn)
inactive: 786-0 > 100 µM | HCC 2998 > 100 µM | HCT-116 > 100 µM | HOP-62 > 100 µM | IGROV-1 > 100 µM | KM12 > 100 µM | LOX IMVI > 100 µM | Malme-3M > 100 µM | NCI-H460 > 100 µM | OVCAR-4 > 100 µM | RPMI-8226 > 100 µM | SF-295 > 100 µM | TK-10 > 100 µM | U-251 > 100 µM | UACC-257 > 100 µM | UO-31 > 100 µM

O=c1[nH]c2ccc(CC(=S)N3CCOCC3)cc2o1
inactive: 786-0 > 100 µM | HCT-116 > 100 µM | HL-60 89.9 µM | HOP-62 > 100 µM | IGROV-1 > 100 µM | KM12 > 100 µM | LOX IMVI > 100 µM | Malme-3M > 100 µM | NCI-H460 > 100 µM | RXF 393 > 100 µM | SF-295 > 100 µM | TK-10 > 100 µM | U-251 > 100 µM | UACC-257 > 100 µM

CCCN(CCCCC(NC(C)=O)C(=O)NCc1ccccc1)C(=O)NCCCl (stereo not drawn)
inactive: 786-0 > 100 µM | HCC 2998 > 100 µM | HCT-116 59.2 µM | HL-60 > 100 µM | HOP-62 > 100 µM | KM12 > 100 µM | Malme-3M > 100 µM | NCI-H460 > 100 µM | OVCAR-4 > 100 µM | RPMI-8226 > 100 µM | RXF 393 > 100 µM | SF-295 > 100 µM | SN12C > 100 µM | TK-10 > 100 µM | U-251 > 100 µM | UACC-257 > 100 µM | UO-31 > 100 µM

CCc1ccccc1-n1c2nc(=O)n(C)c(=O)c-2nc2ccccc21
inactive: 786-0 7.21 µM | HCC 2998 11.1 µM | HCT-116 12.6 µM | HOP-62 29.6 µM | IGROV-1 17.5 µM | KM12 10.8 µM | Malme-3M 5.7 µM | NCI-H460 4.55 µM | OVCAR-4 4.89 µM | RPMI-8226 12.6 µM | RXF 393 13.7 µM | SF-295 11.5 µM | SN12C 13.5 µM | TK-10 8.95 µM | U-251 16 µM | UACC-257 5.11 µM | UO-31 21.5 µM
